Values joined by “and” are separate entries in the source; they are usually repeats but may differ in a detail not shown here. Identical values can stand only once.
Test system: Listeria monocytogenes
Experiment: L. monocytogenes on cooked ground turkey balls blended with ε-polylysine, vacuum packaged, stored at 10° C., CFU determination
Format: cell-based
Details: for Log Reduction: vs control Group A
Procedure: Six groups of 20 g ground uncooked turkey balls were prepared, with 27 balls prepared per group. […] Groups B-F were blended with varying amounts of ε-polylysine (“ε-PL”). Final concentrations of ε-polylysine within the turkey balls were:
After preparation, all meatballs were placed on baking sheets and baked in a conventional oven at 350° F. for 20 minutes. After baking, the meatballs were packaged separately and stored at 4° C.
The mixture was further diluted 1:10,000 times with sterile saline to produce a suspension for use.
20 microliters of the Listeria monocytogenes suspension was inoculated onto the exterior of each turkey ball. Turkey balls were incubated at room temperature for 30 min post-inoculation to allow bacteria to attach. Turkey balls were individually vacuum packaged and stored at 10° C.
The microbiological assay was performed after 3 hours, 24 hours, 1 week, 2 weeks, 3 weeks, 4 weeks, 5 weeks, 7 weeks, and 8 weeks. After each designated time period had passed, three bags from each group of meat balls were unpacked, transferred to a stomacher bag along with 20 ml of sterile 0.1% peptone water. Each meatball was hand crushed and stomached at high speed for 2 minutes. […] The letter “{overscore (A)}” denotes average.

poly(imino(2-amino-1-oxo-1,6-hexanediyl)) [ε-PL]
CFU/g (1000 ppm ε-PL, after 1 week): 5.35E+06 CFU/g and 3.75E+06 CFU/g and 4.05E+06 CFU/g
average Log Value (1000 ppm ε-PL, after 1 week): 6.64
average of CFU/g (1000 ppm ε-PL, after 1 week): 4.38E+06 CFU/g
Log Reduction (1000 ppm ε-PL, after 1 week): 1.64
average Log Value (1000 ppm ε-PL, after 2 weeks): 7.61
average of CFU/g (1000 ppm ε-PL, after 2 weeks): 4.09E+07 CFU/g
Log Reduction (1000 ppm ε-PL, after 2 weeks): 0.68
average Log Value (1000 ppm ε-PL, after 3 weeks): 6.73
average of CFU/g (1000 ppm ε-PL, after 3 weeks): 5.24E+06 CFU/g
Log Reduction (1000 ppm ε-PL, after 3 weeks): 1.66
average Log Value (1000 ppm ε-PL, after 4 weeks): 7.73
average of CFU/g (1000 ppm ε-PL, after 4 weeks): 5.42E+07 CFU/g
Log Reduction (1000 ppm ε-PL, after 4 weeks): 0.74
average Log Value (1000 ppm ε-PL, after 5 weeks): 7.98
average of CFU/g (1000 ppm ε-PL, after 5 weeks): 9.64E+07 CFU/g
Log Reduction (1000 ppm ε-PL, after 5 weeks): 0.44
average Log Value (1000 ppm ε-PL, after 7 weeks): 7.80
average of CFU/g (1000 ppm ε-PL, after 7 weeks): 6.33E+07 CFU/g
Log Reduction (1000 ppm ε-PL, after 7 weeks): 0.62
average Log Value (1000 ppm ε-PL, after 8 weeks): 7.66
average of CFU/g (1000 ppm ε-PL, after 8 weeks): 4.53E+07 CFU/g
Log Reduction (1000 ppm ε-PL, after 8 weeks): 0.68
CFU/g (1000 ppm ε-PL, after 3 hours): 2.34E+02 CFU/g and 1.54E+02 CFU/g and 1.56E+02 CFU/g
average Log Value (1000 ppm ε-PL, after 3 hours): 2.26
average of CFU/g (1000 ppm ε-PL, after 3 hours): 1.81E+02 CFU/g
Log Reduction (1000 ppm ε-PL, after 3 hours): 0.53
average Log Value (1000 ppm ε-PL, after 24 hours): 3.25
average of CFU/g (1000 ppm ε-PL, after 24 hours): 1.77E+03 CFU/g
Log Reduction (1000 ppm ε-PL, after 24 hours): >0.48
average Log Value (2000 ppm ε-PL, after 1 week): 4.74
average of CFU/g (2000 ppm ε-PL, after 1 week): 5.50E+04 CFU/g
Log Reduction (2000 ppm ε-PL, after 1 week): 3.54
average Log Value (2000 ppm ε-PL, after 2 weeks): 4.98
average of CFU/g (2000 ppm ε-PL, after 2 weeks): 9.57E+04 CFU/g
Log Reduction (2000 ppm ε-PL, after 2 weeks): 3.31
average Log Value (2000 ppm ε-PL, after 3 weeks): 4.68
average of CFU/g (2000 ppm ε-PL, after 3 weeks): 4.73E+04 CFU/g
Log Reduction (2000 ppm ε-PL, after 3 weeks): 3.72
average Log Value (2000 ppm ε-PL, after 4 weeks): >6.44
average of CFU/g (2000 ppm ε-PL, after 4 weeks): >2.76E+06 CFU/g
Log Reduction (2000 ppm ε-PL, after 4 weeks): <2.03
average Log Value (2000 ppm ε-PL, after 5 weeks): 5.90
average of CFU/g (2000 ppm ε-PL, after 5 weeks): 7.91E+05 CFU/g
Log Reduction (2000 ppm ε-PL, after 5 weeks): 2.53
average Log Value (2000 ppm ε-PL, after 7 weeks): 6.66
average of CFU/g (2000 ppm ε-PL, after 7 weeks): 4.53E+06 CFU/g
Log Reduction (2000 ppm ε-PL, after 7 weeks): 1.77
average Log Value (2000 ppm ε-PL, after 8 weeks): 6.19
average of CFU/g (2000 ppm ε-PL, after 8 weeks): 1.54E+06 CFU/g
Log Reduction (2000 ppm ε-PL, after 8 weeks): 2.15
CFU/g (2000 ppm ε-PL, after 3 hours): 1.94E+02 CFU/g and 1.96E+02 CFU/g and 1.50E+02 CFU/g
average Log Value (2000 ppm ε-PL, after 3 hours): 2.26
average of CFU/g (2000 ppm ε-PL, after 3 hours): 1.80E+02 CFU/g
Log Reduction (2000 ppm ε-PL, after 3 hours): 0.53
CFU/g (2000 ppm ε-PL, after 24 hours): 1.98E+02 CFU/g and 2.64E+02 CFU/g and 2.14E+02 CFU/g
average Log Value (2000 ppm ε-PL, after 24 hours): 2.35
average of CFU/g (2000 ppm ε-PL, after 24 hours): 2.25E+02 CFU/g
Log Reduction (2000 ppm ε-PL, after 24 hours): >1.37
post-lethality effect (3000 ppm): > 1 log
average Log Value (3000 ppm ε-PL, after 1 week): 1.00
average of CFU/g (3000 ppm ε-PL, after 1 week): 1.00E+01 CFU/g
Log Reduction (3000 ppm ε-PL, after 1 week): 7.28
average Log Value (3000 ppm ε-PL, after 2 weeks): 1.44
average of CFU/g (3000 ppm ε-PL, after 2 weeks): 2.73E+01 CFU/g
Log Reduction (3000 ppm ε-PL, after 2 weeks): 6.85
average Log Value (3000 ppm ε-PL, after 3 weeks): <1.67
average of CFU/g (3000 ppm ε-PL, after 3 weeks): <4.67E+01 CFU/g
Log Reduction (3000 ppm ε-PL, after 3 weeks): >6.72
average Log Value (3000 ppm ε-PL, after 4 weeks): <0.43
average of CFU/g (3000 ppm ε-PL, after 4 weeks): <2.67E+00 CFU/g
Log Reduction (3000 ppm ε-PL, after 4 weeks): >8.05
CFU/g (3000 ppm ε-PL, after 5 weeks): <2.00E+00 CFU/g
average Log Value (3000 ppm ε-PL, after 5 weeks): <0.30
average of CFU/g (3000 ppm ε-PL, after 5 weeks): <2.00E+00 CFU/g
Log Reduction (3000 ppm ε-PL, after 5 weeks): >8.12
average Log Value (3000 ppm ε-PL, after 7 weeks): <1.08
average of CFU/g (3000 ppm ε-PL, after 7 weeks): <1.20E+01 CFU/g
Log Reduction (3000 ppm ε-PL, after 7 weeks): >7.34
CFU/g (3000 ppm ε-PL, after 8 weeks): <2.00E+00 CFU/g
average Log Value (3000 ppm ε-PL, after 8 weeks): <0.30
average of CFU/g (3000 ppm ε-PL, after 8 weeks): <2.00E+00 CFU/g
Log Reduction (3000 ppm ε-PL, after 8 weeks): >8.03
average Log Value (3000 ppm ε-PL, after 3 hours): 1.51
average of CFU/g (3000 ppm ε-PL, after 3 hours): 3.20E+01 CFU/g
Log Reduction (3000 ppm ε-PL, after 3 hours): 1.28
CFU/g (3000 ppm ε-PL, after 24 hours): 5.00E+01 CFU/g and 6.40E+01 CFU/g and 7.20E+01 CFU/g
average Log Value (3000 ppm ε-PL, after 24 hours): 1.79
average of CFU/g (3000 ppm ε-PL, after 24 hours): 6.20E+01 CFU/g
Log Reduction (3000 ppm ε-PL, after 24 hours): >1.93
average Log Value (4000 ppm ε-PL, after 1 week): <0.52
average of CFU/g (4000 ppm ε-PL, after 1 week): <3.35E+00 CFU/g
Log Reduction (4000 ppm ε-PL, after 1 week): >7.76
CFU/g (4000 ppm ε-PL, after 2 weeks): <2.00E+00 CFU/g
average Log Value (4000 ppm ε-PL, after 2 weeks): <0.30
average of CFU/g (4000 ppm ε-PL, after 2 weeks): <2.00E+00 CFU/g
Log Reduction (4000 ppm ε-PL, after 2 weeks): >7.29
CFU/g (4000 ppm ε-PL, after 3 weeks): <2.00E+00 CFU/g
average Log Value (4000 ppm ε-PL, after 3 weeks): <0.3
average of CFU/g (4000 ppm ε-PL, after 3 weeks): <2.00E+00 CFU/g
Log Reduction (4000 ppm ε-PL, after 3 weeks): >8.09
CFU/g (4000 ppm ε-PL, after 4 weeks): 2.00E+00 CFU/g and <2.00E+00 CFU/g
average Log Value (4000 ppm ε-PL, after 4 weeks): <0.30
average of CFU/g (4000 ppm ε-PL, after 4 weeks): <2.00E+00 CFU/g
Log Reduction (4000 ppm ε-PL, after 4 weeks): >8.17
CFU/g (4000 ppm ε-PL, after 5 weeks): <2.00E+00 CFU/g
average Log Value (4000 ppm ε-PL, after 5 weeks): <0.30
average of CFU/g (4000 ppm ε-PL, after 5 weeks): <2.00E+00 CFU/g
Log Reduction (4000 ppm ε-PL, after 5 weeks): >8.12
CFU/g (4000 ppm ε-PL, after 7 weeks): <2.00E+00 CFU/g
average Log Value (4000 ppm ε-PL, after 7 weeks): <0.30
average of CFU/g (4000 ppm ε-PL, after 7 weeks): <2.00E+00 CFU/g
Log Reduction (4000 ppm ε-PL, after 7 weeks): >8.12
CFU/g (4000 ppm ε-PL, after 8 weeks): <2.00E+00 CFU/g
average Log Value (4000 ppm ε-PL, after 8 weeks): <0.30
average of CFU/g (4000 ppm ε-PL, after 8 weeks): <2.00E+00 CFU/g
Log Reduction (4000 ppm ε-PL, after 8 weeks): >8.03
average Log Value (4000 ppm ε-PL, after 3 hours): <1.17
average of CFU/g (4000 ppm ε-PL, after 3 hours): <1.47E+01 CFU/g
Log Reduction (4000 ppm ε-PL, after 3 hours): >1.62
average Log Value (4000 ppm ε-PL, after 24 hours): 1.29
average of CFU/g (4000 ppm ε-PL, after 24 hours): 1.93E+01 CFU/g
Log Reduction (4000 ppm ε-PL, after 24 hours): >2.44
average Log Value (5000 ppm ε-PL, after 1 week): 1.95
average of CFU/g (5000 ppm ε-PL, after 1 week): 8.87E+01 CFU/g
Log Reduction (5000 ppm ε-PL, after 1 week): 6.33
average Log Value (5000 ppm ε-PL, after 2 weeks): <0.30
average of CFU/g (5000 ppm ε-PL, after 2 weeks): <2.00E+00 CFU/g
Log Reduction (5000 ppm ε-PL, after 2 weeks): >7.99
CFU/g (5000 ppm ε-PL, after 3 weeks): <2.00E+00 CFU/g
average Log Value (5000 ppm ε-PL, after 3 weeks): <0.30
average of CFU/g (5000 ppm ε-PL, after 3 weeks): <2.00E+00 CFU/g
Log Reduction (5000 ppm ε-PL, after 3 weeks): >8.09
average Log Value (5000 ppm ε-PL, after 4 weeks): <0.30
average of CFU/g (5000 ppm ε-PL, after 4 weeks): <2.00E+00 CFU/g
Log Reduction (5000 ppm ε-PL, after 4 weeks): <8.17
CFU/g (5000 ppm ε-PL, after 5 weeks): <2.00E+00 CFU/g
average Log Value (5000 ppm ε-PL, after 5 weeks): <0.30
average of CFU/g (5000 ppm ε-PL, after 5 weeks): <2.00E+00 CFU/g
Log Reduction (5000 ppm ε-PL, after 5 weeks): >8.12
CFU/g (5000 ppm ε-PL, after 7 weeks): <2.00E+00 CFU/g
average Log Value (5000 ppm ε-PL, after 7 weeks): <0.30
average of CFU/g (5000 ppm ε-PL, after 7 weeks): <2.00E+00 CFU/g
Log Reduction (5000 ppm ε-PL, after 7 weeks): >8.12
CFU/g (5000 ppm ε-PL, after 8 weeks): <2.00E+00 CFU/g
average Log Value (5000 ppm ε-PL, after 8 weeks): <0.30
average of CFU/g (5000 ppm ε-PL, after 8 weeks): <2.00E+00 CFU/g
Log Reduction (5000 ppm ε-PL, after 8 weeks): >8.03
average Log Value (5000 ppm ε-PL, after 3 hours): 0.60
average of CFU/g (5000 ppm ε-PL, after 3 hours): 4.00E+00 CFU/g
Log Reduction (5000 ppm ε-PL, after 3 hours): 2.18
average Log Value (5000 ppm ε-PL, after 24 hours): 0.73
average of CFU/g (5000 ppm ε-PL, after 24 hours): 5.33E+00 CFU/g
Log Reduction (5000 ppm ε-PL, after 24 hours): >3.00
outgrowth of Listeria (final concentration of 3000 ppm in ground turkey, eight week period, 10° C.): completely inhibited the outgrowth of Listeria
